Data taken from publication PMC10224329, “Design, Synthesis, and Antiproliferative Activity of Benzopyran-4-One-Isoxazole Hybrid Compounds” (Molecules, 2023).

Tests used:
Test in all cases: MTS cell viability assay
Format in all cases: cell-based
[1] = test system: human ovarian adenocarcinoma (SKOV-3) cell lines; settings: SK-OV-3, conjugates at 25 μM, 72 h, read-out: Inhibition of Cancer Cell Lines SKOV-3
Procedure: (§1) All the 14 hybrid compounds synthesized via Scheme 1, along with the intermediates and starting compounds, were tested in vitro for their cytotoxicity against a panel of 6 human cancer cell lines. This panel involved human leukemia carcinoma (CCRF-CEM), human ovarian adenocarcinoma (SKOV-3), human breast tumor (MDA-MB-231), human prostate cancer (PC-3), androgen-independent human prostate cancer (DU-145), and human renal carcinoma (iSLK) cell lines. The compounds were tested at a concentration of 25 μM for incubation periods of 24 and 72 h. Standard anticancer drug doxorubicin at a concentration of 5 μM and DMSO were used as controls in all the cell assays. The antiproliferative profile of benzopyran-4-one-isoxazole conjugates is shown in Figure 2 (cf. Supplementary Materials for the data obtained for intermediates and starting materials Figure S28.1–S28.6, page no. 71–76).
(§2) Cell viability assays were performed using the MTS protocol. The in vitro cytotoxicity of the conjugates was evaluated using six human cancer cell lines, one human normal kidney cell line, and one mammalian normal kidney cell line, which included human leukemia carcinoma cell lines (CCRF-CEM), human ovarian adenocarcinoma cell lines (SKOV-3), human breast tumor cell lines (MDA-MB-231), human prostate cancer cell lines (PC-3), androgen-independent human prostate cancer cell lines (DU-145), human renal carcinoma (iSLK), human embryonic kidney cell lines (HEK-293), and normal mammalian kidney cell line (LLCPK) to determine the toxicity of the synthesized conjugates. CCRF-CEM cells were seeded at 50,000 cells in 0.1 mL per well in 96-well plates, and in the case of SKOV-3, MDA-MB-231, PC-3, DU-145, HEK-293, and LLCPK cell lines, the cells were seeded at 5000 cells in 0.1 mL per well in 96-well plates. The CCRF-CEM cells were seeded in RPMI-1640 media containing 2mM L-glutamine, 1.5 g/L sodium bicarbonate, supplemented with fetal bovine serum (FBS) 10% media, SKOV-3, MDA-MB-231, and LLCPK cells were seeded in MEME media with Earle’s salts and sodium bicarbonate, without L-glutamine, supplemented with fetal bovine serum (FBS) 10%, PC-3 cells were seeded in DMEM:F-12 containing 1:1 mixture with L-glutamine with HEPES, supplemented with fetal bovine serum (FBS) 10%, and DU-145 and HEK-293 cells were seeded in DMEM containing 4500 mg/L glucose, L-glutamine, and sodium bicarbonate, without sodium pyruvate, supplemented with FBS (10%), 24 h prior to the experiment. The compounds at a final concentration of 25 µM (higher concentration stock solution prepared in DMSO) were added to each well in triplicate and incubated for 24 and 72 h at 37 °C in a humidified atmosphere (95% air and 5% CO2). The cell viability was then determined by measuring the absorbance of the formazan product at 490 nm using a microplate reader using a SpectraMax M2 microplate spectrophotometer, Molecular Devices, San Jose, CA, USA. The percentage of cell survival was calculated as [(OD value of cells treated with the test mixture of compounds) − (OD value of culture medium)]/[(OD value of control cells) − (OD value of culture medium)] × 100%. IC50 values of compounds were calculated using non-linear regression analysis in GraphPad Prism (Boston, MA, USA).

[2] = test system: human breast tumor (MDA-MB-231) cell lines
Procedure: as §1, §2

[3] = test system: human renal carcinoma (iSLK) cell lines; settings: Homo sapiens; conjugates at 25 μM, 72 h; read-out: Inhibition of Cancer Cell Lines iSLK
Procedure: as §1, §2

[4] = test system: androgen-independent human prostate cancer (DU-145) cell lines
Procedure: as §1, §2

[5] = test system: human prostate cancer (PC-3) cell lines
Procedure: as §1, §2

[6] = test system: human leukemia carcinoma (CCRF-CEM) cell lines; settings: Homo sapiens, CCRF-CEM
Procedure: as §1, §2

[7] = average of three independent tests in triplicate

Cc1noc(C)c1C(=O)OCc1coc2ccccc2c1=O [Compound 5a, (4-Oxo-4H-1-benzopyran-3-yl)methyl 3,5-dimethylisoxazole-4-carboxylate]
inhibition at 25 µM [1]: 69% | IC50 [2, 7]: 5.6 µM | inhibition at 25 µM ([2]; conjugates at 25 μM, 72 h, read-out: Inhibition of Cancer Cell Lines MDA-MB-231): 78% | inhibition at 25 µM [3]: 44% | IC50 [4, 7]: 15.3 µM | inhibition at 25 µM ([4]; conjugates at 25 μM, 72 h): 73% | IC50 ([5]; PC3, average of three independent tests in triplicate): 17.8 µM | inhibition at 25 µM ([5]; conjugates at 25 μM, 72 h): 70% | inhibition at 25 µM ([6]; conjugates at 25 μM, 72 h, read-out: Inhibition of Cancer Cell Lines CCRF-CEM): 81% | IC50 [6, 7]: 11.6 µM
